Test results: patent US11820755B2, “Uracil compound and use thereof” (Sumitomo Chemical Company, Limited, priority 2018, dated 2023)

What was measured:
[1] = test system: wheat leaf stripe fungi (Septoria tritici); assay: Titer plate growth test of wheat leaf stripe fungi in potato broth medium (absorbance at 600 nm); format: cell-based; conditions: cultured at 18° C. for 4 days
Method: Each 1 μL of a solution containing the compound A at a predetermined concentration in dimethylsulfoxide was dispensed into a titer plate (96 wells), and then each 150 μL of potato broth medium containing suspension of spore of wheat leaf stripe fungi (Septoria tritici) was dispensed so that the concentration of the compound A was finally 4.7 ppm. The plate was cultured at 18° C. for 4 days, thereby allowing the wheat leaf stripe fungi to undergo proliferation, and the absorbance at 600 nm of each well of the titer plate was then measured to determine a degree of growth of the wheat leaf stripe fungi. The efficacy was calculated from the determined degree of growth by the below-mentioned “Equation 1”. Efficacy (%)=100×(X−Y)/X “Equation 1” wherein • X: Degree of fungal growth in non-treated area • Y: Degree of fungal growth in treated area The “Non-treated area” represents an area where a similar treatment procedure to that of the treated area except for not using the compound A is done. Each 1 μL of a solution containing the compound A at a predetermined concentration in dimethylsulfoxide was dispensed into a titer plate (96 wells), and then each 150 μL of potato broth medium containing suspension of spore of wheat leaf stripe fungi was dispensed so that the concentration of the compound A was finally 1.2 ppm. The plate was cultured at 18° C. for 4 days, thereby allowing the wheat leaf stripe fungi to undergo proliferation, and the absorbance at 600 nm of each well of the titer plate was then measured to determine a degree of growth of the wheat leaf stripe fungi. The efficacy was calculated from the determined degree of growth by the below-mentioned “Equation 1”. As a result, the efficacy was 53%. The test was carried out according to Test Example 1 using the compound B instead of the compound A. As a result, the efficacy was 45%. The test was carried out according to Test Example 2 using the compound B instead of the compound A. As a result, the efficacy was 12%.

[2] = test system: barley scald fungi (Rhynchosporium secalis); assay: Titer plate growth test of barley scald fungi in potato broth medium (absorbance at 600 nm); format: cell-based; conditions: 4.7 ppm, cultured at 18° C. for 7 days
Method: Each 1 μL of a solution containing the compound A at a predetermined concentration in dimethylsulfoxide was dispensed into a titer plate (96 wells), and then each 150 μL of potato broth medium containing suspension of spore of wheat leaf stripe fungi (Septoria tritici) was dispensed so that the concentration of the compound A was finally 4.7 ppm. The plate was cultured at 18° C. for 4 days, thereby allowing the wheat leaf stripe fungi to undergo proliferation, and the absorbance at 600 nm of each well of the titer plate was then measured to determine a degree of growth of the wheat leaf stripe fungi. The efficacy was calculated from the determined degree of growth by the below-mentioned “Equation 1”. Efficacy (%)=100×(X−Y)/X “Equation 1” wherein • X: Degree of fungal growth in non-treated area • Y: Degree of fungal growth in treated area The “Non-treated area” represents an area where a similar treatment procedure to that of the treated area except for not using the compound A is done. […] The plate was cultured at 18° C. for 7 days, thereby allowing the barley scald fungi to undergo proliferation, and the absorbance at 600 nm of each well of the titer plate was then measured to determine a degree of growth of the barley scald fungi. The efficacy was calculated from the determined degree of growth by the below-mentioned “Equation 1”. […]

[3] = 1.2 ppm, wheat leaf stripe fungi

Q: CCOc1ncccc1Oc1cc(-n2c(=O)cc(C(F)(F)F)n(C)c2=O)c(F)cc1Cl [Compound A] was tested. Which “Efficacy (%)” value [1, 3] did it give?
A: The value was 53%.

Q: And the “Efficacy (%)” value ([1]; 4.7 ppm, Septoria tritici)?
A: Its value is 73%.

Q: What about the “Efficacy (%)” value [2] of the same compound?
A: The value was 94%.

Q: COc1ncccc1Oc1cc(-n2c(=O)cc(C(F)(F)F)n(C)c2=O)c(F)cc1Cl [Compound B] was tested. Which “Efficacy (%)” value [1, 3] did it give?
A: The value was 12%.

Q: And the “Efficacy (%)” value ([1]; 4.7 ppm, Septoria tritici)?
A: Its value is 45%.

Q: And the “Efficacy (%)” value [2]?
A: The value was 41%.
